The target of one data set is T1, α1 (Homo sapiens, UniProt P56199).
T1 construct: expressed in transfected cells; host or cells: K562 (gift of Dr. Yoshikazu Takada)
As to the kind of experiment: Staining of α1 transfected K562 cells with biotinylated peptide and streptavidin-PE (flow cytometry). It counts as binding. The note with it: 1 μM LXW7-Bio, Streptavidin-PE. The protocol:
(§1) After one time wash, samples were tested. […] Then the specific binding equaled to substraction of nonspecific binding from total binding and Kds were analyzed.
(§2) To test the specificity of LXW7, LXW7 was prepared in biotinylated form and incubated with α1, α2, α3, α4, α6, α9, αIIbβ3 and αvβ3 transfected K562 and parent K562 cells (α5β1), followed by incubation with streptavidin-PE. […] The binding affinities of LXW7 and these cyclic RGD pentapeptides against αvβ3 integrin were compared based on their ability to inhibit FITC-Echistatin binding with αvβ3-K562.

Data set [1] has as its target T2, αvβ3 integrin (Homo sapiens, UniProt P05106+P06756). As to the kind of experiment: Equilibrium binding and antibody blocking of LXW7-Bio on U-87 MG glioblastoma cells (flow cytometry). The arrangement: host or cells: U-87MG (A5). The protocol:
as §1
(§3) The samples were analyzed with Coulter XL-MCL flow cytometry. The histogram and mean fluorescence intensity (MFI) were determined. The apparent Kd, IC50 were calculated using Graph Prism software (≦www.graphpad.com≧).

In data set [2] the target is T2, αvβ3 integrin. Nature of the data set: Inhibition of FITC-Echistatin binding to αvβ3-K562 cells (flow cytometry). The arrangement: expressed in transfected cells; host or cells: K562 (gift of Dr. Yoshikazu Takada, UC Davis). The method, then: as §3
Data set [3] addresses T2, αvβ3 integrin. As to the kind of experiment: Inhibition of biotinylated LXW7 binding to αvβ3-K562 cells (flow cytometry). The arrangement: expressed in transfected cells; host or cells: K562 (gift of Dr. Yoshikazu Takada, UC Davis). The following applies: LXW9-92: inhibiting the binding of biotinylated LXW7 against αvβ3-K562 cells, LXW7 as internal reference. The method, then:
The apparent IC50 were calculated using Graph Prism software (≦www.graphpad.com≧).
as §3

The target of the next data set is T3, α3 (Homo sapiens, UniProt P05556+P26006).
T3 construct: expressed in transfected cells; host or cells: K562 (gift of Dr. Yoshikazu Takada)
Nature of the data set: Staining of α3 transfected K562 cells with biotinylated peptide and streptavidin-PE (flow cytometry). It counts as binding. The note with it: 1 μM LXW7-Bio, Streptavidin-PE. The method, then: as §1, §2
In general terms: Flow cytometry measures light scatter and fluorescence of single cells or particles in a stream.

Data set [4] has as its target T2, αvβ3 integrin. Nature of the data set: Equilibrium binding and antibody blocking of LXW7-Bio on A375M melanoma cells (flow cytometry). More on the design: host or cells: A375M (A4); U-87MG (A5). The method, then:
as §1, §3

The next data set deals with T4, αvβ3 (Homo sapiens, UniProt P05106+P06756).
T4 construct: expressed in transfected cells; host or cells: K562 (gift of Dr. Yoshikazu Takada, UC Davis)
Nature of the data set: Staining of αvβ3 transfected K562 cells with biotinylated peptide and streptavidin-PE (flow cytometry). It counts as binding. The following applies: 1 μM biotinylated peptide, Streptavidin-PE. The method, then: as §1, §2

The next data set addresses T5, α6 (Homo sapiens, UniProt P05556+P23229).
T5 construct: expressed in transfected cells; host or cells: K562 (gift of Dr. Yoshikazu Takada)
Nature of the data set: Staining of α6 transfected K562 cells with biotinylated peptide and streptavidin-PE (flow cytometry). The following applies: 1 μM LXW7-Bio, Streptavidin-PE. It is filed as binding. The method, then:
as §1, §2

Another data set addresses T6, α5β1 (Homo sapiens, UniProt P05556+P08648).
T6 construct: host or cells: parent (non-transfected) K562
As to the kind of experiment: Staining of parent K562 cells (α5β1) with biotinylated peptide and streptavidin-PE (flow cytometry). It counts as binding. The note with it: 1 μM biotinylated peptide, Streptavidin-PE. The method, then: as §1, §2

The test system of another data set is U-87 MG xenograft. Nature of the data set: In vivo and ex vivo near infra red fluorescent imaging, U-87 MG xenograft. More on the design: species or system nude mice. The note with it: complex of Streptavidin-Cy5.5 with biotinylated peptide, 6 hrs after tail vein injection. The method, then: Animal studies were performed according to a protocol approved by IACUC of the University of California, Davis.
Animals were placed on a sheet of transparency in different position. […] Images were captured with a CCD camera set at F stop=0, FOV=150, and FP=0. Six hours post injection of imaging complex, the mice were conducted in vivo imaging, then were sacrificed and organs were excised for ex vivo imaging.

Another data set addresses T7, α4 (Homo sapiens, UniProt P05556+P13612).
T7 construct: expressed in transfected cells; host or cells: K562 (gift of Dr. Yoshikazu Takada)
As to the kind of experiment: Staining of α4 transfected K562 cells with biotinylated peptide and streptavidin-PE (flow cytometry). It counts as binding. The note with it: 1 μM LXW7-Bio, Streptavidin-PE. The protocol:
as §1, §2

Data set [5] has as its target T2, αvβ3 integrin. As to the kind of experiment: Equilibrium binding of LXW7-Bio to αvβ3-K562 cells (flow cytometry). More on the design: expressed in transfected cells; host or cells: K562 (gift of Dr. Yoshikazu Takada, UC Davis). The method, then: as §1, §3
For another data set, the target named is T8, α2 (Homo sapiens, UniProt P17301).
T8 construct: expressed in transfected cells; host or cells: K562 (gift of Dr. Yoshikazu Takada)
As to the kind of experiment: Staining of α2 transfected K562 cells with biotinylated peptide and streptavidin-PE (flow cytometry). The note with it: 1 μM LXW7-Bio, Streptavidin-PE. It counts as binding. The protocol:
as §1, §2

Another data set addresses T9, α9 (Homo sapiens, UniProt P05556+Q13797).
T9 construct: expressed in transfected cells; host or cells: K562 (gift of Dr. Yoshikazu Takada)
Nature of the data set: Staining of α9 transfected K562 cells with biotinylated peptide and streptavidin-PE (flow cytometry). It is filed as binding. The following applies: 1 μM LXW7-Bio, Streptavidin-PE. The method, then: as §1, §2

For a further data set, the target named is T10, αIIbβ3 (Homo sapiens, UniProt P05106+P08514).
T10 construct: expressed in transfected cells; host or cells: K562 (gift of Dr. Jennifer Cochran and Dr. Scott D. Blystone)
As to the kind of experiment: Staining of αIIbβ3 transfected K562 cells with biotinylated peptide and streptavidin-PE (flow cytometry). It counts as binding. The note with it: 1 μM biotinylated peptide, Streptavidin-PE. The protocol:
as §1, §2

Setting [6] is: 10 μg LM609 premixed with 1 μM LXW7-Bio.

“Also recorded” adds a separate entry of the source. Bridge positions count the residues as written; N and C are the ends. Square brackets hold non-standard residues; d marks the D form. Peptide text beside a SMILES is read from it. Bounds are passed on as bounds.

T2 sequence (P06756 31-889 limits assumed): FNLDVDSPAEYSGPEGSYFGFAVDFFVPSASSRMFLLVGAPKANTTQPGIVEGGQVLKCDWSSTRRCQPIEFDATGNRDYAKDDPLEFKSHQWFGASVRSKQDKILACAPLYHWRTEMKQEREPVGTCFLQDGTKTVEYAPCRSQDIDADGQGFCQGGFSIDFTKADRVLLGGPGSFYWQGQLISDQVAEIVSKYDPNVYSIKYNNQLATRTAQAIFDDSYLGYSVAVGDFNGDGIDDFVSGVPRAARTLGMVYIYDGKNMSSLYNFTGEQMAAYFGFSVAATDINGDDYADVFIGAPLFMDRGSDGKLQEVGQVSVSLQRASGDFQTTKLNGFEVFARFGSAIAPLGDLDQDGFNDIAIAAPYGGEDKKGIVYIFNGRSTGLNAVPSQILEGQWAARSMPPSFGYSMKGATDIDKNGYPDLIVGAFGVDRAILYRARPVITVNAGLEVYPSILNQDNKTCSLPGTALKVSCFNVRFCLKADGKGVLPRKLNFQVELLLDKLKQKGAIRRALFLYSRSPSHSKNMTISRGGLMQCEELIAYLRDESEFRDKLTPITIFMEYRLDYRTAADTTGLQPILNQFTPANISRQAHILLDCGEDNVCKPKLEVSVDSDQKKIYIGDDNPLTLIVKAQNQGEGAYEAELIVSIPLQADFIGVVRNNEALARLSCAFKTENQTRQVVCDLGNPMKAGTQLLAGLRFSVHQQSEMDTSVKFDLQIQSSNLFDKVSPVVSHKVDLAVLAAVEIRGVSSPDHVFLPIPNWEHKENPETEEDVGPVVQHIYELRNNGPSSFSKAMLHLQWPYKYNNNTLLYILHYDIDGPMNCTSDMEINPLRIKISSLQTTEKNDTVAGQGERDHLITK
T2 sequence (P06756 891-1048 partner limits assumed): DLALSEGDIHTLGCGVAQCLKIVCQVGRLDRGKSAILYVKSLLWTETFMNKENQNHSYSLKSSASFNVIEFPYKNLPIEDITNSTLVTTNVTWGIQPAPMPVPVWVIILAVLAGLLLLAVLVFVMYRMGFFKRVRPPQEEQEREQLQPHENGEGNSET
T2 sequence (P05106 27-788): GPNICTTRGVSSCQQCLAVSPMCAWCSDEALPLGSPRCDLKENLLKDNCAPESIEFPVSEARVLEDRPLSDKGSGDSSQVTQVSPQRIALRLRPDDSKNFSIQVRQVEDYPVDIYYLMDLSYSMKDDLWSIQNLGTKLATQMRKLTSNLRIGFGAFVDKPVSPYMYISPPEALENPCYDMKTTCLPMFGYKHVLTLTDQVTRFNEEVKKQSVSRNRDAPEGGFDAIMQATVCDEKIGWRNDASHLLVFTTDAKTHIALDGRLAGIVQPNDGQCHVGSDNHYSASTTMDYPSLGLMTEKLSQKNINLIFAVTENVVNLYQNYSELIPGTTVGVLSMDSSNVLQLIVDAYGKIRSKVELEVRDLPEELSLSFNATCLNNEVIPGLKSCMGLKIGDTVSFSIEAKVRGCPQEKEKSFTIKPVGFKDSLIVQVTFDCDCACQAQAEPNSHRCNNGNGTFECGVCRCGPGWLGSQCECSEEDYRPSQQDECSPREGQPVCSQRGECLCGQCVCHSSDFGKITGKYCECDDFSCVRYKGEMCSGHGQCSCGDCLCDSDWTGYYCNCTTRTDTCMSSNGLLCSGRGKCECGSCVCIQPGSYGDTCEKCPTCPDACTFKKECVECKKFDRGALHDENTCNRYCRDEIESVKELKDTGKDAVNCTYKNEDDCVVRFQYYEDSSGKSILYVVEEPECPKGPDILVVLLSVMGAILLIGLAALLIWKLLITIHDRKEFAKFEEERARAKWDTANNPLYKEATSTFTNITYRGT
T6 sequence (P08648 42-894 limits assumed): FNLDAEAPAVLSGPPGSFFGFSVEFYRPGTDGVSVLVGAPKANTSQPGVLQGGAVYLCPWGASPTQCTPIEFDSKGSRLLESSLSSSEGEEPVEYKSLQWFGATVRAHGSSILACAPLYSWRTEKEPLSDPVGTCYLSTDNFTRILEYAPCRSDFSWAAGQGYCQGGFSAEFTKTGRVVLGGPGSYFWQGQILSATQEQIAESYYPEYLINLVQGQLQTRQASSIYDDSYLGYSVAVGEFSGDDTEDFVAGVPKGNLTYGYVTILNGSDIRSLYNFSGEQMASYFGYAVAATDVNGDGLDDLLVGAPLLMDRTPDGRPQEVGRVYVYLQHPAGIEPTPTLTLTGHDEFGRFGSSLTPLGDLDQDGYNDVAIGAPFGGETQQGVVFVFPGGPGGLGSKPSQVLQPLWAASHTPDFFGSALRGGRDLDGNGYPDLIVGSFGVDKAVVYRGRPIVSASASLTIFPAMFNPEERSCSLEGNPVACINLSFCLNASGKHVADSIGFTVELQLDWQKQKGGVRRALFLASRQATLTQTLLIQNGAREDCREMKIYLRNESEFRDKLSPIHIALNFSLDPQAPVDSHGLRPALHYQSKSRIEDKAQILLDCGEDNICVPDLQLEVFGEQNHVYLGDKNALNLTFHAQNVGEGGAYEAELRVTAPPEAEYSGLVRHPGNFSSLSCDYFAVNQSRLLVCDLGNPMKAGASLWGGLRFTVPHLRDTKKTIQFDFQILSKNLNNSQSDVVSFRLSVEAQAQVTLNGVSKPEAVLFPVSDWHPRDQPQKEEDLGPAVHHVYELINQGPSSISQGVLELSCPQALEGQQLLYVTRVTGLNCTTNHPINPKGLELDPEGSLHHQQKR
T6 sequence (P08648 895-1049 partner limits assumed): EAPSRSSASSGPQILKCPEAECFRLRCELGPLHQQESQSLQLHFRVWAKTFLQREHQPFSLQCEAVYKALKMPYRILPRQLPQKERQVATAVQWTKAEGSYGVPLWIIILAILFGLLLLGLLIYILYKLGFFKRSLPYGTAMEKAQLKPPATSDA
T6 sequence (P05556 21-798): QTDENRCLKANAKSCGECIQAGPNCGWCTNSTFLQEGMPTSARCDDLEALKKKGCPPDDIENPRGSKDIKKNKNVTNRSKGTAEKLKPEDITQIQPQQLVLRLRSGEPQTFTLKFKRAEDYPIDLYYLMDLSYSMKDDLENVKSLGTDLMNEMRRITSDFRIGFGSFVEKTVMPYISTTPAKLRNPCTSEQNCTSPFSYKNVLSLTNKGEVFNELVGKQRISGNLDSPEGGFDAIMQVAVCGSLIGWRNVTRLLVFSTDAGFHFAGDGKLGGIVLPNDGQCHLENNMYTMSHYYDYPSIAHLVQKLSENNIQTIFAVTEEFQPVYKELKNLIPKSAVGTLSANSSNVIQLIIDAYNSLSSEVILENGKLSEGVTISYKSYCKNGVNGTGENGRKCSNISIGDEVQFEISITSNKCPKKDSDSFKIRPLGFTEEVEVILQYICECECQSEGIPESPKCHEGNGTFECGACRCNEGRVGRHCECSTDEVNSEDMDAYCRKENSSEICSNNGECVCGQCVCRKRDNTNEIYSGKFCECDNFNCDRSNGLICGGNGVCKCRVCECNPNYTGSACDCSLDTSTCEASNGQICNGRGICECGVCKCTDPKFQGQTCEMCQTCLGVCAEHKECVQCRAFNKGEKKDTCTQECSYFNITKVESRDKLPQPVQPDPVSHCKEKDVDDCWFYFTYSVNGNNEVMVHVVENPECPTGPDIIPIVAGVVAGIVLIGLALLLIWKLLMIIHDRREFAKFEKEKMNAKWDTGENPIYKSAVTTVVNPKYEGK
T5 sequence (P23229 24-938 limits assumed): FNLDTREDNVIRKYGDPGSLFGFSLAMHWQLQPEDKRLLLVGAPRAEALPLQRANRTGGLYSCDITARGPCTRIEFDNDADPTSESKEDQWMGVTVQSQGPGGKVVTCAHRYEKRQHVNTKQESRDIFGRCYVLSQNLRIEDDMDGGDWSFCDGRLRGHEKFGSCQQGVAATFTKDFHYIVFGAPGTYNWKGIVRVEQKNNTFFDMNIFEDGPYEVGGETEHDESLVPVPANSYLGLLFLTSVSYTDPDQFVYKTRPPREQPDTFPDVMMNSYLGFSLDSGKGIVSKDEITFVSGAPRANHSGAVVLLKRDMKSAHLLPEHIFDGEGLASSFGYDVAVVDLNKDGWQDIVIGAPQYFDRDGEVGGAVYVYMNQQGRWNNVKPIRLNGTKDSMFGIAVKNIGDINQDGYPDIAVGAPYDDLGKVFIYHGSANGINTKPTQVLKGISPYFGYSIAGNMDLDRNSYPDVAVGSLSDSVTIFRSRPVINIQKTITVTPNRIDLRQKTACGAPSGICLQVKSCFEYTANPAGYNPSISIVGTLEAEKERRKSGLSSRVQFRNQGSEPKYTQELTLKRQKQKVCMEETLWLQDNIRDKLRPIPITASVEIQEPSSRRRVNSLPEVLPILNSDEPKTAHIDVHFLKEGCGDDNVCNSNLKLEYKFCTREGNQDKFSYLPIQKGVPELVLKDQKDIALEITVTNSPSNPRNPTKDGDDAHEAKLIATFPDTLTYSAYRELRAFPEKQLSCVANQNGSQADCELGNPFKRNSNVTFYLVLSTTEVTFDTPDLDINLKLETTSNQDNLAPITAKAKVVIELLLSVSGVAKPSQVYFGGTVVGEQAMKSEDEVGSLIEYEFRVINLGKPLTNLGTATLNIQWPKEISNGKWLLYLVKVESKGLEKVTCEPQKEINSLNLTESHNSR
T5 sequence (P23229 942-1130 partner limits assumed): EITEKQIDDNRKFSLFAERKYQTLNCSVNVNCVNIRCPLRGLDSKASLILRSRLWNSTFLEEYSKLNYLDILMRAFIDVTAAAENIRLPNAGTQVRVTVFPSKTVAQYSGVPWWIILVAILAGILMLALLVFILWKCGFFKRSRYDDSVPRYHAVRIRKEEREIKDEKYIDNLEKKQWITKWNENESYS
T5 sequence (P05556 21-798): as the sequence (P05556 21-798) above
T4 sequence (P06756 31-889 limits assumed): as the sequence (P06756 31-889 limits assumed) above
T4 sequence (P06756 891-1048 partner limits assumed): as the sequence (P06756 891-1048 partner limits assumed) above
T4 sequence (P05106 27-788): as the sequence (P05106 27-788) above

Broadly, the Kd is the constant that tells how readily two partners part at equilibrium. One may read the IC50 as the midpoint of a concentration-inhibition curve. `CC(C)[C@H]1NC(=O)[C@@H](CC(=O)O)NC(=O)[C@H](CC(=O)O)NC(=O)CNC(=O)[C@H](CCCNC(=N)N)NC(=O)CNC(=O)[C@H](N)CSSC[C@H](C(N)=O)NC1=O` [LXW7, cGRGDdvc] (H-[dC]GRGD[dD][dV][dC]-NH2; disulfide 1-8): on α1, the “binding with α1” value is “no binding; also recorded: not at all”. For the same compound, the “binding to U-87 MG cells in presence of anti-αvβ3 antibody (LM609)” value at αvβ3 integrin [1] (setting [6]) is on record as “markedly blocked”. The figures for the “Bmax (A.U)” value on αvβ3 integrin [1] (U-87 MG), on αvβ3 integrin [4] (A375M) and on αvβ3 integrin [5] were 86 ± 4 A.U, 71 ± 4 A.U and 1394 ± 57 A.U, respectively. Further, the Kd was 72 ± 15 nM at αvβ3 integrin [1] (U-87 MG), 89 ± 8 nM on αvβ3 integrin [4] (A375M) and 76 ± 10 nM at αvβ3 integrin [5]. The “binding strength to αvβ3 integrin, biotinylated versus non-biotinylated, in words” value on αvβ3 integrin [2] was “near identical binding strength”. Also, the IC50 on αvβ3 integrin [2] (LXW1-8: inhibition of binding of FITC-Echistatin against αvβ3-K562, class symbols, read-out: IC50) is below 1000 nM; at αvβ3 integrin [3] it was 590 nM. The “binding with α3” value at α3 was “no binding; also recorded: not at all”. For the same compound, the “binding to A375M cells in presence of anti-αvβ3 antibody (LM609)” value on αvβ3 integrin [4] (setting [6]) was “markedly blocked”. The “binding with αvβ3” value at αvβ3 is recorded as “strong positive binding; also recorded: strongly bound”. The “binding with α6” value at α6 is “no binding; also recorded: not at all”. For the same compound, the “binding with α5β1 (α5)” value at α5β1 was “no binding; also recorded: not at all”. Further, the “liver uptake, ex vivo imaging” value in the data set with U-87 MG xenograft was “low”. Also, the “tumor uptake, ex vivo imaging” value with U-87 MG xenograft is listed as “high”. In addition, the “binding with α4” value at α4 was “no binding”. For the same compound, the “binding with α2” value on α2 is reported as “no binding; also recorded: not at all”. At α9, the “binding with α9” value is given as “no binding; also recorded: not at all”. Besides, the “binding with αIIbβ3” value at αIIbβ3 is listed as “weak cross-reaction; also recorded: weakly”.
